Patent US5256685A, “Mitomycin derivatives” (Kyowa Hakko Kogyo Co., Ltd., priority 1991, dated 1993)

Assays:
Acute toxicity = conditions: mouse, in vivo, iv; i.v. once, ddY mice, observed 14 days; Behrens-Kaerber's method
Description: A test compound was intravenously injected once to five ddY mice as one group. […] LD50 was calculated from the death rate of each group to which the test compound was administered according to the Behrens-Kaerber's method.

Sarcoma 180 solid tumor = assay: Anti-tumor activity to sarcoma 180 solid tumor; type: in vivo; conditions: Mus musculus, Sarcoma-180, iv, 168 h; dose showing T/C=0.5 (tumor volume, 7 days after implantation); single i.v. injection 24 hours after s.c. implantation; male ddY mice
Description: Anti-tumor activity to sarcoma 180 solid tumor
5×10^6 Sarcoma 180 cells were abdominally implanted into a ddY mouse and the cells were collected from the ascites of the mouse 7 days after the implantation. The cells were washed once with a sterilized physiological saline solution and then suspended in a sterilized physiological saline solution to prepare a cell suspension of 5×10^7 cells/ml.
0.1 ml of the cell suspension was subcutaneously implanted into the right axillary space of male ddY mice weighing 20±2 g.
A test compound was dissolved in a physiological saline solution or a polyoxyethylene sorbitan monolaurate-containing physiological saline solution, and 0.1 to 0.2 ml of the solution was intravenously injected to 5 mice as one group 24 hours after the implantation of the tumor cells.
The anti-tumor activity of the test compound was determined by measuring the major axis (a) and the minor axis (b) of the tumor 7 days after the implantation of tumor cells, and the value of (a×b^2 /2), which corresponds to the volume of the tumor, was calculated. The intended anti-tumor activity is represented by a ratio of T/C, in which C indicates the tumor volume of mice of the control group to which no test compound was administered and T indicates the tumor volume of mice of the test group to which the test compound was administered. T/C at each dose given was plotted on the vertical axis and a dose is shown by a logarithmic scale on the horizontal axis. The relationship between the dose and T/C was determined to be a straight line by the least squares method. From the regression formula of the straight line thus obtained, the dose showing T/C=0.5 was calculated to give ED50.

HeLaS3 cells = assay: Growth inhibition test on HeLaS3 cells; type: cell-based; conditions: Homo sapiens, HeLa S3, 1 h exposure, then 72 h incubation at 37° C., Neutral Red
Description: Growth inhibition test on HeLaS3 cells
HeLaS3 cells were suspended in an MEM medium containing 10% fetal calf serum and 2 mM glutamine at a density of 3×10^4 cells/ml, and 0.1 ml of the cell suspension was put into each well of a 96-well microtiter plate.
After culturing at 37° C. overnight in a carbon dioxide gas incubator, 0.05 ml each of a test compound appropriately diluted with the medium was added to each well. The cells were further cultured for an hour in the carbon dioxide gas incubator, and the culture supernatant was removed. The residue was washed once with a phosphate buffered saline [PBS (-)] and 0.1 ml each of a fresh medium was added to each well. The cells were further incubated at 37° C. for 72 hours in the carbon dioxide gas incubator. After removal of the culture supernatant, 0.1 ml each of the culture medium containing 0.02% Neutral Red was added to each well, and the cells were further incubated at 37° C. for an hour in the carbon dioxide gas incubator to stain the cells.
After removal of the culture supernatant, each well was washed once with a physiological saline, and the dye was extracted with 0.001N HCl/30% ethanol. Absorbance of the extract at 550 nm was measured with a microplate reader. The cell growth inhibition percentage was calculated according to the following equation from the absorbance of the extract of the cells treated with the test compound in various concentrations and that of the untreated cells. [formula]
From the cell growth inhibition percentage thus obtained, the concentration of the test compound which inhibits cell growth by 50%, i.e. IC50 value, was determined.

| SMILES | LD50 at 336 h (Acute toxicity) | ED50 (Sarcoma 180 solid tumor) | IC50 (HeLaS3 cells) |
| --- | --- | --- | --- |
| CO[C@@]12[C@H](COC(N)=O)C3=C(C(=O)C4=C(OC5=C(C4)C(=O)CC(C)C5)C3=O)N1C[C@@H]1N[C@@H]12 (single isomer, unassigned) [Compound 36] | 4.4 mg/kg | 1.3 mg/kg |  |
| COc1ccc(C2CC(=O)C3=C(C2)OC2=C(C3)C(=O)C3=C(C2=O)[C@@H](COC(N)=O)[C@@]2(OC)[C@H]4N[C@H]4CN32)cc1 (single isomer, unassigned) [Compound 38] |  | 12 mg/kg |  |
| CCC1=C(N)C(=O)C2=C(C1=O)N1C[C@@H]3N[C@@H]3[C@]1(OC)[C@@H]2COC(N)=O [Compound 1, 6-demethyl-6-ethylmitomycin C] | 38 mg/kg | 6.7 mg/kg | 3000 µM |
| CO[C@@]12[C@H](COC(N)=O)C3=C(C(=O)C(Cc4ccccc4)=C(N)C3=O)N1C[C@@H]1N[C@@H]12 [Compound 7, 6-benzyl-6-demethylmitomycin C] | > 50 mg/kg | 18 mg/kg | 2300 µM |
| CO[C@@]12[C@H](COC(N)=O)C3=C(C(=O)C(CC4=C(O)CC(C)(C)CC4=O)=C(N)C3=O)N1C[C@@H]1N[C@@H]12 [Compound 9] | 30 mg/kg | 8 mg/kg | 1500 µM |
| CCOC(=O)C(C)(CC1=C(OC)C(=O)C2=C(C1=O)N1C[C@@H]3N[C@@H]3[C@]1(OC)[C@@H]2COC(N)=O)C(C)=O (stereo partly drawn) [Compound 10] |  |  | 1600 µM |
| CCOC(=O)C1=C(C)OC2=C(C1)C(=O)C1=C(C2=O)[C@@H](COC(N)=O)[C@@]2(OC)[C@H]3N[C@H]3CN12 [Compound 12] | 5.2 mg/kg | 0.7 mg/kg |  |
| CO[C@@]12[C@H](COC(N)=O)C3=C(C(=O)C4=C(OC5=C(C4)C(=O)CC(C)(C)C5)C3=O)N1C[C@@H]1N[C@@H]12 [Compound 13] | 2.9 mg/kg | 1.3 mg/kg | 84 µM |
| CO[C@@]12[C@H](COC(N)=O)C3=C(C(=O)C4=C(OC5=C(C4)C(=O)CCC5)C3=O)N1C[C@@H]1N[C@@H]12 [Compound 14] | 2.2 mg/kg | 0.84 mg/kg | 65 µM |
| CCC1=C(OC)C(=O)C2=C(C1=O)N1C[C@@H]3N[C@@H]3[C@]1(OC)[C@@H]2COC(N)=O [Compound 15, 6-demethyl-6-ethylmitomycin A] | 8.2 mg/kg | 2.8 mg/kg |  |
| CCC1=C(OC)C(=O)C2=C(C1=O)N1C[C@H]3[C@H](N3C)[C@]1(O)[C@H]2COC(N)=O (stereo partly drawn) [Compound 16, 6-demethyl-6-ethylmitomycin B] | 25 mg/kg | 14 mg/kg |  |
| CO[C@@]12[C@H](COC(N)=O)C3=C(C(=O)C4=C(OC(C)=C(C(=O)c5ccccc5)C4)C3=O)N1C[C@@H]1N[C@@H]12 [Compound 30] |  | 5.8 mg/kg |  |
| CO[C@@]12[C@H](COC(N)=O)C3=C(C(=O)C4=C(OC5=C(C4)C(=O)CC(C)C5)C3=O)N1C[C@@H]1N[C@@H]12 (stereo partly drawn) [Compound 37] |  | 0.93 mg/kg |  |
